The source of these data is patent US20210284618A1, “FURANOCHALCONES AS INHIBITORS OF CYP1A1, CYP1A2 AND CYP1B1 FOR CANCER CHEMOPREVENTION” (Council of Scientific & Industrial Research, priority 2016, published 2021).

Series [1] concerns the target T1, CYP1A1 (Homo sapiens, UniProt P04798).
T1 construct: host or cells: yeast microsomes (Saccharosomes)
T1 sequence (P04798 1-512): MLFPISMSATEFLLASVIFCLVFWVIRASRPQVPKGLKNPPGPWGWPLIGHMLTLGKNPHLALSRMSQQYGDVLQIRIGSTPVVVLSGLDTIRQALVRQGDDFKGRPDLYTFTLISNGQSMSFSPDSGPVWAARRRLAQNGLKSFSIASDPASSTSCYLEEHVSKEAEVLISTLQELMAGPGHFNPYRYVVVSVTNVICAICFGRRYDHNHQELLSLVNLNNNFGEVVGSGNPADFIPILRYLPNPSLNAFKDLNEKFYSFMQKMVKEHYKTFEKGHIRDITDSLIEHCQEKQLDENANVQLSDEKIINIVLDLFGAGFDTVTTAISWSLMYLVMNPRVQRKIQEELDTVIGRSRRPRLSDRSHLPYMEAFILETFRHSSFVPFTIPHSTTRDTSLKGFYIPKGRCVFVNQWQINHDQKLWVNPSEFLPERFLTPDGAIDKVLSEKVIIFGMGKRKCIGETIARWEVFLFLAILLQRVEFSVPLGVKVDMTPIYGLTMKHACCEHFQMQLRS
The series can be described thus: CYP1A1 inhibition in HEK293 cells transfected with pcDNA3.1/CYP1A1 (live cells). It counts as cell-based. As to conditions: for inhibition at 10 μM: human, HEK293 cells transfected with pcDNA3.1/CYP1A1 (live cells), probe EROD (5 μM), % inhibition of CYP1A1 in HEK293 cells at 10 μM; for inhibition at 10 μM / % inhibition of CYP1A1 in HEK293 cells at 10 μM: 5 μM EROD. As for the experimental part: Example 26. In-vitro CYP450 inhibition in HEK293 cells transfected with pcDNA3.1/CYP1A1 against 5 μM EROD. […] The HEK293 cells used here was procured from ‘European Collection of Authenticated Cell Cultures’ (catalog number. ECACC 85120602).

Series [2] addresses T2, CYP1B1 (Homo sapiens, UniProt Q16678).
T2 sequence (Q16678 1-543): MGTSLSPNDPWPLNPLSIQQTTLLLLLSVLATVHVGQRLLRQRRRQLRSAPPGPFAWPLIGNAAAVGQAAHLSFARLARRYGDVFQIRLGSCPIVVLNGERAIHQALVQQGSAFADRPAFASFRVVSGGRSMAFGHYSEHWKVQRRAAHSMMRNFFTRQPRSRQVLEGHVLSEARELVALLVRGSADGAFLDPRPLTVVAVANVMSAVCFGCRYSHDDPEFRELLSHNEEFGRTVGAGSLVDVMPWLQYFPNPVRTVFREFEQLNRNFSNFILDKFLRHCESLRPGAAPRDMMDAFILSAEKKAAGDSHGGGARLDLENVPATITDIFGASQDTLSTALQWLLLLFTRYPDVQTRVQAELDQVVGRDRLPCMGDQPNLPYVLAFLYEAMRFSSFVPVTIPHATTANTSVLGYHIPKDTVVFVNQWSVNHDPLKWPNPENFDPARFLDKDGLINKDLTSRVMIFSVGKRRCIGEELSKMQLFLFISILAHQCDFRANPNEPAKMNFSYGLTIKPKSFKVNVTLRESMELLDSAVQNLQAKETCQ
The series can be described thus: CYP1B1 inhibition in live human cells (HEK293). It counts as cell-based.

The target in series [3] is T2, CYP1B1. In words: In-vitro CYP450 1B1 enzyme inhibition in Saccharosomes. It counts as biochemical. Set-up: purchased CYP Design Ltd; host or cells: yeast microsomes (Saccharosomes). As to conditions: human, Saccharosomes (yeast-derived) with recombinant CYP1B1, probe 7-ethoxyresorufin (5 μl of 0.1 mM), % inhibition of CYP1B1 in Saccharosomes at 10 μM, 10 μM test compound, 7-ethoxyresorufin. As for the experimental part: Example 24. In-vitro CYP450 1B1 enzyme inhibition in Saccharosomes™: Regenerating system consists of: 5 μl Solution A (183 mg of NADP++183 mg of glucose-6-phosphate+654 μl of 1.0 M magnesium chloride solution+9.15 ml of sterile ultra-pure water)+1 μl Solution B (250 Units of glucose-6-phosphate dehydrogenase+6.25 ml of 5 mM sodium citrate; mixed in a tube and made up to 10 ml with sterile ultra-pure water)+39 μl 0.2 M Kpi (0.6 ml of 1.0M K2HPO4+9.4 ml of 1.0 M KH2PO4 were mixed and made up to 50 ml with sterile ultra-pure water)+5 μl potential inhibitory compound.
(§1) Example 25. IC50 determination for best compound against CYP1A1, CYP1B1 and other CYPs in Saccharosomes. Compounds were serially diluted to six different concentrations with 10% DMSO in a Sero-Well white microplate. The experiment was performed in a similar way as described above in examples 23 and 24.

For series [4], the target named is T1, CYP1A1. The series can be described thus: In-vitro CYP450 1A1 enzyme inhibition in Saccharosomes. To be noted: 10 μM test compound, 5 μM ethoxyresorufin; for inhibition at 20 min, 10 μM: human, Saccharosomes containing CYP1A1, pH 7.4, probe ethoxyresorufin (5 μM), % inhibition of CYP1A1 in Saccharosomes at 10 μM. It counts as biochemical. The method, then: Example 23. In-vitro CYP450 1A1 enzyme inhibition in Saccharosomes™: The screening method utilizes 384-well microplates to rapidly ascertain relative percentage inhibition of CYP1A1 by a library of compounds. Each reaction was performed in black, clear-bottomed 384-well microplates. A reaction volume of 50 μl comprised of 0.5 pmol of the cytochrome P450 CYP1A1 (Saccharosomes), 5 μM of ethoxyresorufin substrate (which contributes 0.05% DMSO to the well), 10 μM of potential inhibitor test article (which contributes 0.5% DMSO to the well), A P450 reductase NADPH regenerating system (1.3 mM NADP+, 3.3 mM glucose-6-0.02 units phosphate and glucose-6-Phosphate dehydrogenase), potassium phosphate buffer (final well concentration 100 mM, pH 7.4) and water. Very small quantities of magnesium chloride and sodium citrate are added to the NADPH regenerating system, in line with standard published protocols. The potential inhibitor (test article) was pre-incubated with CYP1A1 of at least 20 minutes at 30° C. After this period, the remainder of the reagents required in the assay was added to initiate the process. The reaction mixture was incubated for another 20 minutes at 30° C. The reaction was stopped by adding an 80% acetonitrile, 20% 0.5 M Tris solution. The reactions were monitored using the Biotek Synergy HT plate reader by measuring the endpoint reaction at Excitation 530/(25 bandwidth) & Emission 590/(20 bandwidth) using a gain/sensitivity setting of 60. The mean of the quadruplicates of the negative control (solvent inactivated CYP1A1) was deducted from the mean of potential inhibitor (test article) samples. The percentage was then derived relative to the mean of the wells without inhibitor.
as §1

Structures are written as SMILES. A value given as a limit tells only on which side of the number the result lay.

As a reminder, the IC50 is the concentration that inhibits the measured activity by half. As a reminder, the inhibition is the drop in the measured response relative to a control, in per cent. Broadly, the melting point is the temperature, or range, at which the solid turns liquid.

Turning to `COc1c(C(=O)/C=C/c2ccc(F)cc2)c(O)c(OC)c2occc12` [Compound 6, 3-(4,7-dimethoxy-6-hydroxybenzofuran-5-yl)-1-(4-fluorophenyl)-3-oxopropene], the values for the half-maximal inhibitory concentration (IC50) in series [1] and in series [2] were 480 nM and 1320 nM, respectively. For the same compound, the inhibition at 10 μM in series [1] is 79.6%; in series [3], 49.5%. Further, the inhibition at 20 min, 10 μM in series [4] is more than 80%.
Take `CCOc1ccc(Br)cc1/C=C/C(=O)c1c(O)c(OC)c2occc2c1OC` [Compound 11, 3-(4,7-dimethoxy-6-hydroxybenzofuran-5-yl)-1-(2-ethoxy,5-bromophenyl)-3-oxopropene]: the melting point fell in the range of 260 to 261 °C. In series [1], this compound gave an inhibition at 10 μM of 31.7%. Besides, in series [4], the inhibition at 20 min, 10 μM was 64.3%.
With `COc1c(C(=O)/C=C/c2ccc(Cl)cc2)c(O)c(OC)c2occc12` [Compound 4, 3-(4,7-dimethoxy-6-hydroxybenzofuran-5-yl)-1-(4-chlorophenyl)-3-oxopropene], the melting point is 162 to 164 °C. For the same compound, in series [1], the “% inhibition of CYP1A1 in HEK293 cells at 10 μM” value was determined as 85.7% and the inhibition at 10 μM is more than 80%. Further, the inhibition at 20 min, 10 μM in series [4] is 77.5%.
`COc1c(C(=O)/C=C/c2c(F)c(F)c(F)c(F)c2F)c(O)c(OC)c2occc12` [Compound 15, 3-(4,7-dimethoxy-6-hydroxybenzofuran-5-yl)-1-(2,3,4,5,6 pentafluorophenyl)-3-oxopropene] displayed a melting point of 300 to 301 °C. The same compound displayed an inhibition at 10 μM in series [1] of 71.6%. Moreover, the inhibition at 20 min, 10 μM in series [4] was found to be 21.9%.
In the case of `COc1c(C(=O)/C=C/c2ccc(F)c(Br)c2)c(O)c(OC)c2occc12` [Compound 5, 3-(4,7-dimethoxy-6-hydroxybenzofuran-5-yl)-1-(3-bromo-4-fluorophenyl)-3-oxopropene], the melting point lay within 186 to 188 °C. Besides, in series [1], the “% inhibition of CYP1A1 in HEK293 cells at 10 μM” value is 82.3% and the inhibition at 10 μM was more than 80%. In series [4], the “% inhibition of CYP1A1 in Saccharosomes at 10 μM” value was found to be 83.1% and the inhibition at 20 min, 10 μM was more than 80%.
